{"source": "patent US20240139113A1", "about": "“LIPID NANOPARTICLE WITH TARGET INTEGRIN FUNCTION AND USES THEREOF” (priority 2022, published 2024)", "key": {"[1]": {"system": "human umbilical vein endothelial cells (HUVEC)", "assay": "Cell viability of normal cells (HUVEC), 3-day treatment", "assay_type": "cell-based", "details": "3 days, FIG. 2A", "excerpt": "(§1) In this example, the effect of the lipid nanoparticle on the growth of normal cells is investigated.\n(§2) Dox represents doxorubicin; Tetrac represents tetraiodothyroacetic acid."}, "[2]": {"system": "monkey kidney epithelial cells (Vero)", "assay": "Cell viability of normal cells (Vero), 3-day treatment", "assay_type": "cell-based", "details": "3 days, FIG. 2A", "excerpt": "as §1, §2"}}, "data": [{"smiles": "O=C(O)Cc1cc(I)c(Oc2cc(I)c(O)c(I)c2)c(I)c1", "note": "[Tetrac, tetraiodothyroacetic acid]", "values": [{"measurement": "cell viability / growth of normal cells", "setting": "[1]", "result": "do not affect the growth of normal cells"}, {"measurement": "cell viability / growth of normal cells", "setting": "[2]", "result": "do not affect the growth of normal cells"}]}]}
